Reference: article PMC8766756, “Insights on Cancer Cell Inhibition, Subcellular Activities, and Kinase Profile of Phenylacetamides Pending 1H-Imidazol-5-One Variants” (Frontiers in Pharmacology, 2022)
“And” between values parts separate entries of the source, which are not always exact repeats. Identical values can stand only once.

Tests used:
[1] = Stability in mouse plasma; format: in vitro ADME; conditions: 1 µM, t1/2; listed as KIM-161
Description: The assay was conducted at 37°C in triplicate. The test compound KIM-161 or procaine (the positive control) was tested at a final concentration of 1 µM in either 2.5% DMSO/CD-1 mouse plasma (Innovative Research, Novi, MI; sodium heparin added as anticoagulant; pH adjusted to 7.4 with 2N HCl on the day of use) or 2.5% DMSO/PBS (pH 7.4; 136.9 mM NaCl, 2.68 mM KCl, 8.1 mM Na2HPO4, 1.47 mM KH2PO4, 0.9 mM CaCl2, and 0.49 mM MgCl2). At seven time points, the reaction mixture aliquots were transferred to 96-shallow-well stop plates on ice containing acetonitrile with 0.1 µM propafenone. Samples were analyzed by LC/MS/MS on a Waters Xevo TQ instrument as described above using positive electrospray ionization. The assay acceptance criterion was 20% for all standards and 25% for the LLOQ. GraphPad® Prism v.5.04 was used for nonlinear fitting of data to generate t1/2 values.

[2] = target: T1, CCK4/PTK7 (Q13308) (Homo sapiens, UniProt Q13308); test: PamChip tyrosine kinase microarray; format: biochemical; conditions: 0.1 µM, HL60 lysate
T1 construct: purchased PamGene (PamChip PTK array, Upstream Kinase Analysis)
T1 sequence (Q13308 31-1070): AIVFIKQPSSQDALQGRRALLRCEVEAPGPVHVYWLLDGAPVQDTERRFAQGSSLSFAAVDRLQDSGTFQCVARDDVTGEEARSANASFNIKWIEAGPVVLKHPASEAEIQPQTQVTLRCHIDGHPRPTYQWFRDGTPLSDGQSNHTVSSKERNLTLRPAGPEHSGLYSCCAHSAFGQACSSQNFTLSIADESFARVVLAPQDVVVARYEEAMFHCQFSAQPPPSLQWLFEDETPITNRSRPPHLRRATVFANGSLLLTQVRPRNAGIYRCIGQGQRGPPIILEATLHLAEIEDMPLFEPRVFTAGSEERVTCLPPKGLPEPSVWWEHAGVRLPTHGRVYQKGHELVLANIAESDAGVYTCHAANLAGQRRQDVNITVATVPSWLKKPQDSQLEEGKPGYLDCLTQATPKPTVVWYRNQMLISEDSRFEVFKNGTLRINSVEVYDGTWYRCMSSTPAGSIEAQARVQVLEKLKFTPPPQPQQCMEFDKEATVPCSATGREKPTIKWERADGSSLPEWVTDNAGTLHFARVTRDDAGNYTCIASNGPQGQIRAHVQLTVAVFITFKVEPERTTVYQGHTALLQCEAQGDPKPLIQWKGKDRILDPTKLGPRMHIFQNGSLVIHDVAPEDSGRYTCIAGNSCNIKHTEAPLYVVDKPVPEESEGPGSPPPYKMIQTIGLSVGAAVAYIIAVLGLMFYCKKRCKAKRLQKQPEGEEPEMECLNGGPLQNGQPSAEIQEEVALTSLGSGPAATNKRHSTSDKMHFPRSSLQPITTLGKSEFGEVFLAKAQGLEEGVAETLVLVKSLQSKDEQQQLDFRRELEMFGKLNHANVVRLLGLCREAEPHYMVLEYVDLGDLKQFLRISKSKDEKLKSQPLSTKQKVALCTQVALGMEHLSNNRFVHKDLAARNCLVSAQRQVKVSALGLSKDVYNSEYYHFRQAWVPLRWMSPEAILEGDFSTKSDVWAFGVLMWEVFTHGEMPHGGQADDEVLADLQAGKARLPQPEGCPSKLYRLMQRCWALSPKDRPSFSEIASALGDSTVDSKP
How it was run: (§1)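 HL60 (AML) cell lysate was spiked with compound at 0.001, 0.01, 0.1, 1, 10 and 50 µM, or 2% v/v DMSO as control, then profiled in technical replicates on a tyrosine kinase peptide array of 196 phosphosites. Kinase activity was inferred from peptide-set changes using an upstream kinase tool.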

[3] = target: T2, FGFR4 (P22455) (Homo sapiens, UniProt P22455); test: PamChip tyrosine kinase microarray; format: biochemical; conditions: 0.1 µM, HL60 lysate
T2 construct: purchased PamGene (PamChip PTK array, Upstream Kinase Analysis)
T2 sequence (P22455 22-802): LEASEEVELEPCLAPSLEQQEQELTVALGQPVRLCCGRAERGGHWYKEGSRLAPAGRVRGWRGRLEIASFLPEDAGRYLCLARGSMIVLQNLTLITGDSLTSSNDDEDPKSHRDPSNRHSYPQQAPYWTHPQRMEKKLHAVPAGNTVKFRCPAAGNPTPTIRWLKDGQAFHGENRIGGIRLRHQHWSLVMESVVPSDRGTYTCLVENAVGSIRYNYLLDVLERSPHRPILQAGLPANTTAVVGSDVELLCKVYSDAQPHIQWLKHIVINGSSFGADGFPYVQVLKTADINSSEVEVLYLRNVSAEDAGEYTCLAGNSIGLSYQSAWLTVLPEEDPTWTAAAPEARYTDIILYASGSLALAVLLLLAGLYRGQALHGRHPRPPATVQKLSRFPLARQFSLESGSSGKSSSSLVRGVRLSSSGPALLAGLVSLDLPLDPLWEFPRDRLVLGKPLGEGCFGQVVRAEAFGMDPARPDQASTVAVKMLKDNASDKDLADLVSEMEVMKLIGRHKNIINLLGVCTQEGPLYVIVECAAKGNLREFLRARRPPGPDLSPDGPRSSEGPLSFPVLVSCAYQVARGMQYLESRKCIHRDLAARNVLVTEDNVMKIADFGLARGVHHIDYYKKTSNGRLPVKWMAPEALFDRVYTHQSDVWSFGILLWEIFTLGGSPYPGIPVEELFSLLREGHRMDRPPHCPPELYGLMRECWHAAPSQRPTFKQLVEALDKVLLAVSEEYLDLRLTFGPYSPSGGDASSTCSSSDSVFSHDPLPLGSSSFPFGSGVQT
How it was run: as §1

[4] = target: T3, Lyn (P07948) (Homo sapiens, UniProt P07948); test: PamChip tyrosine kinase microarray; format: biochemical; conditions: 0.1 µM, HL60 lysate
T3 construct: purchased PamGene (PamChip PTK array, Upstream Kinase Analysis)
T3 sequence (P07948 whole entry): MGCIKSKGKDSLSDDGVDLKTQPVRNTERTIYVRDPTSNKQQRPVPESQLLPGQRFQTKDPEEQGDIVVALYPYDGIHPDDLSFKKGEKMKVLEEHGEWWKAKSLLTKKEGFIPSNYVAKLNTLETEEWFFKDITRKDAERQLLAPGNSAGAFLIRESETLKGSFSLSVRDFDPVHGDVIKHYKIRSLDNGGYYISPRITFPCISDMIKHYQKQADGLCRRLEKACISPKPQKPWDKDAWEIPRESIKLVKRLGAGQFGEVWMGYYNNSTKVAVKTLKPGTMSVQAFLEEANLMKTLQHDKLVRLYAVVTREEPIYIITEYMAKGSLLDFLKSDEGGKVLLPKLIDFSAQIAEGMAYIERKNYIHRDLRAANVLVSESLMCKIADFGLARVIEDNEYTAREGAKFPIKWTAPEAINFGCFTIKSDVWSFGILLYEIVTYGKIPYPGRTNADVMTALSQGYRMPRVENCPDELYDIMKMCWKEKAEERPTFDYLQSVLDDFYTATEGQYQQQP
How it was run: as §1

[5] = target: T4, Kit (P10721) (Homo sapiens, UniProt P10721); test: PamChip tyrosine kinase microarray; format: biochemical; conditions: 0.1 µM, HL60 lysate
T4 construct: purchased PamGene (PamChip PTK array, Upstream Kinase Analysis)
T4 sequence (P10721 26-976): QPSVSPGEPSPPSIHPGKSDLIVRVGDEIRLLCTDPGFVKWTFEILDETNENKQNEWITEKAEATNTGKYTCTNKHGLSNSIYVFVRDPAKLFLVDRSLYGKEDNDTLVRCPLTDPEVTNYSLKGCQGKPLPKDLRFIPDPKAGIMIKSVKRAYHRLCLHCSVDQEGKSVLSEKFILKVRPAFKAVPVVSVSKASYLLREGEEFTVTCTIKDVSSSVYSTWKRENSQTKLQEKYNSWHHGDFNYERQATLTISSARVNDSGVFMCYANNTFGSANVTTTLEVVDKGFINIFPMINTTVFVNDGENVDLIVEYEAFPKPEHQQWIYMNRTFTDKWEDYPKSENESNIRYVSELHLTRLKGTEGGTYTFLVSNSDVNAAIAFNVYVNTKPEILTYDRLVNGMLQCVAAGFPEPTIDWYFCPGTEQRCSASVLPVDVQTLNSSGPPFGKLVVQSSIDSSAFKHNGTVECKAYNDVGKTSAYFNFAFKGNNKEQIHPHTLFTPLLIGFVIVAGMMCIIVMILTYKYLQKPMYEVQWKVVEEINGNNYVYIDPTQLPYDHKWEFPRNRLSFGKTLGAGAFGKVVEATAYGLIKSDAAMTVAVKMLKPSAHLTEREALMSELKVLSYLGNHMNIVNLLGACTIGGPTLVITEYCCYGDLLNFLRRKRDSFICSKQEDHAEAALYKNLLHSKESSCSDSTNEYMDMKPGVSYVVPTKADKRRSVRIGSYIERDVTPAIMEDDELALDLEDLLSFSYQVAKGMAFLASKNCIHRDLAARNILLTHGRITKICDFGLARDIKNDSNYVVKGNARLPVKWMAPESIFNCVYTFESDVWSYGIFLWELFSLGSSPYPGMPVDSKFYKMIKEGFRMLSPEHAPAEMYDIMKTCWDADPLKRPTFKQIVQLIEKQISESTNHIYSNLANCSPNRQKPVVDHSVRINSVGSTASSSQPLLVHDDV
How it was run: as §1

Compound: COc1ccc(/C=C2\N=C(C)N(c3ccc(CC(=O)NCc4ccccc4)cc3)C2=O)cc1 [Compound 4c, (Z)-N-Benzyl-2-(4-(4-(4-methoxybenzylidene)-2-methyl-5-oxo-4,5-dihydro-1H-imidazol-1-yl)phenyl)acetamide]
- Stability in mouse plasma at 37°C [1]: >300 min
- Mean Significance Score [2]: 1.989
- Mean Specificity Score [2]: 0.5841
- Mean Final score (Kinase score) ([2]; listed as KIM-161): 2.60 and 2.5986
- Mean Significance Score [3]: 2.023
- Mean Specificity Score [3]: 0.5516
- Mean Final score (Kinase score) ([3]; listed as KIM-161): 2.73 and 2.7333
- Mean Final score (Kinase score) [4]: 2.229
- Mean Kinase Statistic [4]: -1.195
- Mean Significance Score [4]: 1.851
- Mean Specificity Score [4]: 0.3437
- Mean Final score (Kinase score) [5]: 2.581
- Mean Kinase Statistic [5]: -1.291
- Mean Significance Score [5]: 2.048
- Mean Specificity Score [5]: 0.5837
